Source: patent US20230295212A1 (ROME Therapeutics, Inc., priority 2022, published 2023)
Counter-ions that a name gives are not always drawn.

Experiments:
human telomerase = target: T1, human telomerase (Homo sapiens, UniProt O14746); test: Human telomerase PCR ELISA assay (MCF-7 cell lysate); assay type: biochemical; settings: triphosphates, 0.2 μg MCF-7 lysate
T1 construct: endogenous in cells; host or cells: MCF-7 cell lysate
Procedure: Exemplary compounds were tested for ability to inhibit human telomerase using a PCR ELISA assay. Off-target inhibition of human telomerase can result in undesired cellular toxicity, e.g., triggering replicative senescence and/or apoptotic cell death. Assay procedures and results are described below.
The human telomerase assay was performed with telomerase in the MCF-7 cell lysate using the Telo TAGGG Telomerase PCR ELISA^Plus kit (Roche) per manufacturer's instruction. MCF-7 cells were lysed in the lysis buffer and the supernatant was used for the assay. Test compound was serially diluted in water and mixed with 0.2 μg of MCF-7 lysate in PCR tubes and incubate at room temperature for 15 minutes. The PCR reaction mixture was then added, the tubes were transferred to a thermal cycler (Analytikjena) and the telomerase elongation reaction was performed for 30 minutes followed by 30 PCR cycles with the following protocol:
Mix 2.5 μL of PCR amplification product from above to 10 μl of denature reagent to each well of a PCR plate and incubate at room temperature for 10 minutes. Add in 100 μl of hybridization buffer T and mix well. Transfer 100 μl per well of the reaction mixture to the precoated MP module, incubate at 37° C. for 2 hours. Remove the hybridization solution, wash three times with the wash buffer, add anti-DIG-HRP solution, incubate at room temperature for 30 minutes. Remove the anti-DIG-HRP solution and wash five times with the wash buffer. Add TMB substrate and incubate at room temperature for 10 minutes. Measure the absorbance at 450 nm using Envision (PerkinElmer).

human DNA polymerase γ = target: T2, human DNA polymerase γ (Homo sapiens, UniProt P54098); test: Homogeneous time-resolved fluorescence human DNA polymerase γ assay; assay type: biochemical; settings: triphosphates, room temperature 30 minutes
T2 construct: purchased Gentaur
T2 sequence (P54098 1-1239): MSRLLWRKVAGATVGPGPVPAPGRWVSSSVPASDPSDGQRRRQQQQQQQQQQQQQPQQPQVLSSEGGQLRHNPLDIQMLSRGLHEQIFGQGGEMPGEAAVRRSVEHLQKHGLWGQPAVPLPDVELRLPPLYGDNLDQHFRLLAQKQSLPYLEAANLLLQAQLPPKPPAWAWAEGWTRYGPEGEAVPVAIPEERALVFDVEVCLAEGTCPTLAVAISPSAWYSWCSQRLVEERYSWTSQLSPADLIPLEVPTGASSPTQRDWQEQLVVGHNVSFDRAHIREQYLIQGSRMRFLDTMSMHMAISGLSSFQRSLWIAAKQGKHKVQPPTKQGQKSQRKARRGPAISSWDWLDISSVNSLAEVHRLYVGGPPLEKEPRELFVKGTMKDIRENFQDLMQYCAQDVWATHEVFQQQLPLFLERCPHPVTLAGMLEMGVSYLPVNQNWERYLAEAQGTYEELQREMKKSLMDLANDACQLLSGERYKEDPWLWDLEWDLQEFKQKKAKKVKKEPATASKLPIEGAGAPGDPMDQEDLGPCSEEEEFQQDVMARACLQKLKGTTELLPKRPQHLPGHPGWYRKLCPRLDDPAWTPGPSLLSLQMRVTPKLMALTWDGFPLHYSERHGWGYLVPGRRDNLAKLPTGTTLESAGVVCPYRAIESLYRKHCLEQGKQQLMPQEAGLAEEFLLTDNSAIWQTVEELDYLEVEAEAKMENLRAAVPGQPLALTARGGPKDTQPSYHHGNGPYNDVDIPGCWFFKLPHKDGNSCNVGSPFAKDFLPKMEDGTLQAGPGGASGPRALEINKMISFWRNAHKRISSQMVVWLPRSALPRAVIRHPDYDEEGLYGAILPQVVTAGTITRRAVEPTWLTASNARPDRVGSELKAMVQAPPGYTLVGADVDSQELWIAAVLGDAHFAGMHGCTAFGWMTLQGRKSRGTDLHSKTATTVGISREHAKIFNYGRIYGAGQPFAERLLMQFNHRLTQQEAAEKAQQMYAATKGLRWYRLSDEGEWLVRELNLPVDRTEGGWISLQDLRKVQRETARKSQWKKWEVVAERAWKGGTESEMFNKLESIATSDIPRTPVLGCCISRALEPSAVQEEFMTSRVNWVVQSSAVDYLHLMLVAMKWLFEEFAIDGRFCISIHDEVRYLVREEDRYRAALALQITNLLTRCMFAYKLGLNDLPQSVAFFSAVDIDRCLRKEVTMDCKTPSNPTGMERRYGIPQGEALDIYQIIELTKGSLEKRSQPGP
Procedure: Exemplary compounds were tested for ability to inhibit human DNA polymerase γ using a homogeneous time-resolved fluorescence (HTRF) assay. Off-target inhibition of DNA polymerase γ by NRTIs can result in undesired mitochondrial toxicity. Assay procedures and results are described below.
The human DNA polymerase γ homogeneous time-resolved fluorescence (HTRF) assay was performed with recombinant human DNA polymerase γ protein (Gentaur) in a 384-well format. Test compound was serially diluted in water and further diluted in the assay buffer (28 mM Tris-HCl, 14 mM NaCl, 0.56 mM MgCl2, 0.011% Triton X-100, 0.11 mg/ml BSA, 1.1 mM DTT, pH 8.1). The serially diluted compound was mixed with polymerase γ, 10 nM of pre-annealed template/biotin-primer pair (synthesized at Geneway Biotechnology), 100 nM of Fluorescein-12-dCTP fluorescent probe (PerkinElmer), and 10 μM dGTP/dATP/dTTP (ThermoFisher Scientific) in the assay buffer. The template/biotin-primer sequences were as follows:
After incubating at room temperature for 30 minutes, the detection reagent (5 mM EDTA with streptavidin-terbium cryptate, Cisbio Bioassay) in the PPI buffer (Cisbio Bioassay) was added, and the mixture was incubated at room temperature for 60 minutes. At the end of the incubation, fluorescence was read at ex/em=337/485 nm and ex/em=337/520 nm on an Envision 2104 plate reader (PerkinElmer). The fluorescence ratio at 520/485 nm was used for the calculation. […] The IC50 was calculated by fitting the compound dose inhibition curve with a 4-parameter non-linear regression equation.

T1 sequence (O14746 whole entry): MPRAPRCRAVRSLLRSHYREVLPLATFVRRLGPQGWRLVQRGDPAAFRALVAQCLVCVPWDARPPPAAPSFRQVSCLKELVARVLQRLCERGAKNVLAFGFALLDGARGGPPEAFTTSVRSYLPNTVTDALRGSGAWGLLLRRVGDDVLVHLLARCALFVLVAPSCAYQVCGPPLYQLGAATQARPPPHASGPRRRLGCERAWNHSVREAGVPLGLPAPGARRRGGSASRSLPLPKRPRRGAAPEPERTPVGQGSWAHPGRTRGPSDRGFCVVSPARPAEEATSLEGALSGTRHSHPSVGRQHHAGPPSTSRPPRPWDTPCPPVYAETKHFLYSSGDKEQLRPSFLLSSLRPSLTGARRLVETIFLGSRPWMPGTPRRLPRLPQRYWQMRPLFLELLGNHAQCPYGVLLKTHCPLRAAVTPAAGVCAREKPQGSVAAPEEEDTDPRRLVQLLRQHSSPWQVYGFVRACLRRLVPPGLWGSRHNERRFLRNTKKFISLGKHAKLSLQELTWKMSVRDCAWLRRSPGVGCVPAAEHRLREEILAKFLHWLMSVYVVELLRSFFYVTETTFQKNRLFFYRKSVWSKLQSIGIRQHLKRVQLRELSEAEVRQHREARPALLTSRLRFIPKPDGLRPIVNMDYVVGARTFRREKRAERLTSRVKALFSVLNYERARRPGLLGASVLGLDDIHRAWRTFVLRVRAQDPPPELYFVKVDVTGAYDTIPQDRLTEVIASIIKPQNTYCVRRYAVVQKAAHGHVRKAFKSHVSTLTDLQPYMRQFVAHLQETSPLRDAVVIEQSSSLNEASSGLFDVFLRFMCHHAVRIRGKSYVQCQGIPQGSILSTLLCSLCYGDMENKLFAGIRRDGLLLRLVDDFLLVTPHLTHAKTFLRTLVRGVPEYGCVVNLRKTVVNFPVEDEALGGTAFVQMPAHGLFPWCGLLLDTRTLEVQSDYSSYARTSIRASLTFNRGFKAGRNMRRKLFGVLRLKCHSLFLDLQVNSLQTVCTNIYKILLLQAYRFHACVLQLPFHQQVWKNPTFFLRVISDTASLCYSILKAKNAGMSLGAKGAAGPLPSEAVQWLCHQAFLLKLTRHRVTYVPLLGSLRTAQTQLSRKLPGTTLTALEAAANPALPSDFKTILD
T1 sequence (O60832 whole entry partner): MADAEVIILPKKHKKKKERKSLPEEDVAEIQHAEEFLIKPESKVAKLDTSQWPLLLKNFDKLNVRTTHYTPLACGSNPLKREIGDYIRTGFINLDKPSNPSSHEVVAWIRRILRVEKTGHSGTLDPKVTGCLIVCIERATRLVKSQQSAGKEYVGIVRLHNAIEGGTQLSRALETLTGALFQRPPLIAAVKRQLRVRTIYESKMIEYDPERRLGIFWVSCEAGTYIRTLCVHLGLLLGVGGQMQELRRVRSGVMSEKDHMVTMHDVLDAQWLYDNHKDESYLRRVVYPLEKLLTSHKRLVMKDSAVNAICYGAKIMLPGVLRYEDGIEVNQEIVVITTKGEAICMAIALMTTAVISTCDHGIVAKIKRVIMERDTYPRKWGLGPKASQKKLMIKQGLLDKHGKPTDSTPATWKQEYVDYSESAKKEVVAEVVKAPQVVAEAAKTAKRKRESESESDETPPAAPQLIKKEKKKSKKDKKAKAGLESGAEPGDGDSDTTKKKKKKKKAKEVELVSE
T1 sequence (Q9NX24 whole entry partner): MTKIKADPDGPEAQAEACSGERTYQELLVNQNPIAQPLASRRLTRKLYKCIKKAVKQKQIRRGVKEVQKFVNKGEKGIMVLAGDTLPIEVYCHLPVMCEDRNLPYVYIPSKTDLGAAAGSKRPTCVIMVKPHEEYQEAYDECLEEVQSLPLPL
T1 sequence (Q9NPE3 whole entry partner): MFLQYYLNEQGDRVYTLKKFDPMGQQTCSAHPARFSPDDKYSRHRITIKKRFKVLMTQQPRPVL
T1 sequence (Q9NY12 whole entry partner): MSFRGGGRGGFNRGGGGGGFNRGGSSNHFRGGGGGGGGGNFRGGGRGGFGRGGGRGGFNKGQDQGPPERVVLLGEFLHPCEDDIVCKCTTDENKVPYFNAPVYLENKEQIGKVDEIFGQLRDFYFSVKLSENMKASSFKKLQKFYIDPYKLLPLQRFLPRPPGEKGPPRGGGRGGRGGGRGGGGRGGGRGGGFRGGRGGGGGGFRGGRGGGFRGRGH

| SMILES | IC50 (human telomerase) [µM] | IC50 (human DNA polymerase γ) [µM] |
| --- | --- | --- |
| CC[C@]1(COP(=O)(O)OP(=O)(O)OP(=O)(O)O)O[C@@H](n2ccc(N)nc2=O)C[C@@H]1O [44-TP] | 25 to 50 | > 300 |
| C=C[C@]1(COP(=O)(O)OP(=O)(O)OP(=O)(O)O)O[C@@H](n2ccc(N)nc2=O)C[C@@H]1O [Compound 43-TP] | 1 to 25 | 200 to 300 |
| Nc1ccn([C@@H]2O[C@](CCl)(COP(=O)(O)OP(=O)(O)OP(=O)(O)O)[C@@H](O)[C@@H]2F)c(=O)n1 [Compound 40-TP] | > 100 | 200 to 300 |
| Nc1nc(=O)n([C@H]2C[C@H](O)[C@@](CCl)(COP(=O)(O)OP(=O)(O)OP(=O)(O)O)O2)cc1F [Compound 14-TP, ((2R,3S,5R)-5-(4-amino-5-fluoro-2-oxopyrimidin-1(2H)-yl)-2-(chloromethyl)-3-hydroxytetrahydrofuran-2-yl)methyl tetrahydrogen triphosphate TEA Salt] | ≤ 1 | 50 to 100 |
| Nc1ccn([C@H]2C[C@H](O)[C@@](CCl)(COP(=O)(O)OP(=O)(O)OP(=O)(O)O)O2)c(=O)n1 [Compound 2-TP] | ≤ 1 | ≤ 50 |
| C#C[C@]1(COP(=O)(O)OP(=O)(O)OP(=O)(O)O)O[C@@H](n2ccc(N)nc2=O)[C@@H](F)[C@@H]1O [Compound 35-TP] | > 100 | 200 to 300 |
| Nc1nc(=O)n([C@@H]2O[C@](CCl)(COP(=O)(O)OP(=O)(O)OP(=O)(O)O)[C@@H](O)[C@@H]2F)cc1F [Compound 67-TP] | > 100 | 200 to 300 |
